From article PMC6366404, “4-(3-Nitrophenyl)thiazol-2-ylhydrazone derivatives as antioxidants and selective hMAO-B inhibitors: synthesis, biological activity and computational analysis” (Journal of Enzyme Inhibition and Medicinal Chemistry, 2019)

Tests used:
[1] = target: T1, hMAO-B (Homo sapiens, UniProt P27338); assay: Reversibility of MAO-B inhibition by dialysis; assay type: biochemical
T1 sequence (P27338 1-520): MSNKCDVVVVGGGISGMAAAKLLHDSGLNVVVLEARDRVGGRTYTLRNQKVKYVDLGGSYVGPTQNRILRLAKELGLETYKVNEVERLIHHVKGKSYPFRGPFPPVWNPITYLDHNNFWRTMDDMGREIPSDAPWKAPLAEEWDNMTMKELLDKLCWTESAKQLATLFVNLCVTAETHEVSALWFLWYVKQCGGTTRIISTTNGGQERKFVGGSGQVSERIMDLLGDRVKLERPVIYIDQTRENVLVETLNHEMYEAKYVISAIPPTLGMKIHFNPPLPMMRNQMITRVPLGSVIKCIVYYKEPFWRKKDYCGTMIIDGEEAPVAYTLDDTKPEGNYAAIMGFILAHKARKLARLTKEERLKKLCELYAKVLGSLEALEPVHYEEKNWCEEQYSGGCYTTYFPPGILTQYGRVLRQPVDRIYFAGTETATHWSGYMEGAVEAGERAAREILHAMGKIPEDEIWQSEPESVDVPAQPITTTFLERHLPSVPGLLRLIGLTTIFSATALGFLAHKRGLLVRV
Method: Stock solutions of the test compounds were prepared in DMSO and added to the incubations to yield 4% DMSO. The samples were dialyzed for 24 h at 4 °C in 80 ml of dialysis buffer using Slide-A-Lyzer® dialysis cassettes (Thermo Scientific) with a molecular weight cut-off of 10,000 and a sample volume capacity of 0.5–3 ml. The dialysis buffer was replaced at 3 and 7 h after the start of dialysis. Following dialysis, the dialysis samples were diluted twofold with the addition of kynuramine to yield a kynuramine concentration and inhibitor concentration of 50 µM and 2 × IC50, respectively. The reactions (500 µL) were incubated for 20 min at 37 °C and terminated with NaOH (400 μL, 2 N) and water (1000 µL). The fluorescence of 4-hydroxyquinoline in these samples was measured as described for the IC50 determination above. […] Undialysed mixtures of MAO-B and the test inhibitors were maintained at 4 °C for 24 h and diluted and assayed as above. All reactions were carried out in triplicate and the residual enzyme catalytic rates are expressed as mean ± SD.
Reversibility of MAO inhibition is an important factor to consider when evaluating the inhibition properties of potential inhibitors. Irreversible MAO inhibitors, particularly of the MAO-A isoform, are associated with dangerous adverse effects such as the cheese reaction, which occurs when irreversible MAO-A inhibitors are taken with tyramine-rich food[51]. […] The samples were diluted twofold and the residual MAO-B activity was measured. For reversible inhibition, dialysis is expected to reverse inhibition by the test inhibitors and restore enzyme activity to the level of the negative control. […] A final experiment consisted of incubations containing MAO-B and tested inhibitors which were not dialyzed, but maintained for 24 h.

[2] = Cupric ion reducing activity (CUPRAC)
[3] = Metal chelating activity on ferrous ions; conditions: ferrozine
[4] = Phosphomolybdenum assay (PhosphoMo), total antioxidant activity; conditions: concentration at which absorbance was 0.5
[5] = target: T1, hMAO-B; assay: hMAO-B inhibition, IC50 determination (kynuramine fluorescence); assay type: biochemical
Method: The procedure for the measurement of IC50 values for the inhibition of MAO has been reported. The enzyme reactions were prepared to a volume of […] in potassium phosphate buffer at pH 7.4 (100 mM, made isotonic with KCl) and contained kynuramine (50 μM) and the test inhibitors (0.003–100 µM). Stock solutions of the test inhibitors were prepared in DMSO and added to the reactions to yield 4% DMSO. The enzyme reactions were initiated with the addition of recombinant hMAO-A (0.0075 mg protein/mL) or hMAO-B (0.015 mg protein/mL) and incubated for 20 min at 37 °C. At endpoint, the reactions were terminated with 80 µL sodium hydroxide (2N) and the fluorescence of 4-hydroxyquinoline, the oxidation product of kynuramine, was measured (λex = 310; λem = 400 nm)[33]. 4-Hydroxyquinoline was quantified with a calibration curve (0.047–1.56 μM) and the rate of 4-hydroxyquinoline formation was fitted to the one site competition model of the Prism 5 software package (GraphPad). From the resulting sigmoidal plots, the IC50 values were estimated. All enzyme reactions were carried out in triplicate and IC50 values are given as the mean ± standard deviation (SD).

## CC(=NNc1nc(-c2cccc([N+](=O)[O-])c2)cs1)c1cccs1 [Compound 4, 1-(4-(3-Nitrophenyl)thiazol-2-yl)-2-(1-(thiophen-2-yl)ethylidene)hydrazine]
[1]; dialysis 24 h
  Reversibility of MAO-B inhibition: partially reversible
[1]; inhibitor at 4 × IC50, not dialyzed, maintained 24 h
  Residual MAO-B activity, undialysed mixtures: 33%
[1]; inhibitor at 4 × IC50, preincubated 15 min, dialyzed 24 h, relative to negative control
  Residual MAO-B activity after dialysis: 61%
[2]
  EC50: 520 ± 20 µM
[3]
  IC50: > 5000 µM
[4]
  EC50: 1680 ± 90 µM
[5]
  IC50: 0.0018 µM
[5]; ratio (IC50 hMAO-A)/(IC50 hMAO-B)
  Selectivity index (SI) for the MAO-B isoform: 922
